# Source: patent US20090270371A1, “QUINOLINE DERIVATIVES USEFUL IN THE TREATMENT OF MGLUR5 RECEPTOR-MEDIATED DISORDERS” (priority 2005, published 2009)
# Biological target: T1, rat mGluR5 receptors (Rattus norvegicus, UniProt P31424)
# T1 construct: rat cerebro-cortical membrane preparation was used; from tissue; host or cells: rat cerebral cortex membranes
# Test: mGluR5 receptor binding test, rat cerebro-cortical membrane preparation, [3H]-M-MPEP
# Settings: affinity for rat mGluR5 receptors; [3H]-M-MPEP (2 nM) radioligand
# Procedure, shortened: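 Radioligand binding used rat cerebro-cortical membranes with 2 nM [3H]-M-MPEP. Nonspecific binding was defined with 10 μM M-MPEP. The method follows a modification of a published procedure.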
# T1 sequence (P31424 21-1203): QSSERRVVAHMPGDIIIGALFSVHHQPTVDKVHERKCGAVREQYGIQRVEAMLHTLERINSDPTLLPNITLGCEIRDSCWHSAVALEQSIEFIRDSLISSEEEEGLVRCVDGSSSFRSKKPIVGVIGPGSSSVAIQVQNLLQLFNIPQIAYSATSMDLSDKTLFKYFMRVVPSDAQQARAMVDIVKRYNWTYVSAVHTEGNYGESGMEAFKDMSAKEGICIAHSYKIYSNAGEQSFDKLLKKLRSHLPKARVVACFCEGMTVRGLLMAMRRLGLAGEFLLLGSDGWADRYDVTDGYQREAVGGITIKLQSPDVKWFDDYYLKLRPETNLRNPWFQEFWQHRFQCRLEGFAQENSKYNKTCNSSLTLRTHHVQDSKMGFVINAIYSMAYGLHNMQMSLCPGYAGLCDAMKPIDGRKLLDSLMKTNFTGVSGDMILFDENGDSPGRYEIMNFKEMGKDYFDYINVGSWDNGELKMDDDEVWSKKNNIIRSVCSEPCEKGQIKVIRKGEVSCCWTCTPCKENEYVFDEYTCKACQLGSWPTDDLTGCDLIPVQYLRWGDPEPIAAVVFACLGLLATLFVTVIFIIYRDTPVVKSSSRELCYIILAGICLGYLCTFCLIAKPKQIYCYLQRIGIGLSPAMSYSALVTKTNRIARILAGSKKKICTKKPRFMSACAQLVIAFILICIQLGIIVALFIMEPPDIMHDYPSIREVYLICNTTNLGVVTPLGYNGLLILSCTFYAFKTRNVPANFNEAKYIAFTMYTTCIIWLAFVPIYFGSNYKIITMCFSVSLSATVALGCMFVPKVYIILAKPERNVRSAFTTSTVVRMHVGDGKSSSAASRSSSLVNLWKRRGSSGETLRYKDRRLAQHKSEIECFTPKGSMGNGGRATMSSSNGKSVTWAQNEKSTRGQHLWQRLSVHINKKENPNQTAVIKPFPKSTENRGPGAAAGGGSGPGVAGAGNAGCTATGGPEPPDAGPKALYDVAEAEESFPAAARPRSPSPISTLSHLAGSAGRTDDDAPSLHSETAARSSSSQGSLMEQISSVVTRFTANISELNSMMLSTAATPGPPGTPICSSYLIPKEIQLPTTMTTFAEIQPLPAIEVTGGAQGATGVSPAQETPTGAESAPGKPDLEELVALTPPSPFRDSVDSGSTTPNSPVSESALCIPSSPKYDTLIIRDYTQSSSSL
row,Compound,Ki [nM]
1,O=S(=O)(c1cc(Cl)cc(Cl)c1)c1cnc2ccc(F)cc2c1N1CCOCC1 [Compound 280],> 500
2,N#Cc1cccc(S(=O)(=O)c2cnc3ccc(F)cc3c2N2CCOCC2)c1 [Compound 281],> 500
3,COc1ccc(S(=O)(=O)c2cnc3ccc(F)cc3c2N2CCOCC2)cc1 [Compound 282],> 500
4,COc1cccc(S(=O)(=O)c2cnc3ccc(F)cc3c2N2CCOCC2)c1 [Compound 283],> 500
5,COc1ccc(S(=O)(=O)c2cnc3ccc(F)cc3c2N2CCOCC2)cc1Cl [Compound 284],> 500
6,O=S(=O)(c1cccc(Cl)c1)c1cnc2ccc(F)cc2c1N1CCOCC1 [Compound 285],> 500
7,O=S(=O)(c1ccc(Cl)c(Cl)c1)c1cnc2ccc(F)cc2c1N1CCOCC1 [Compound 286],200 to 500
8,Cc1ccc(S(=O)(=O)c2cnc3ccc(F)cc3c2N2CCOCC2)cc1F [Compound 287],> 500
9,Cc1ccc(S(=O)(=O)c2cnc3ccc(F)cc3c2N2CCOCC2)cc1Cl [Compound 288],200 to 500
10,Cc1cc(C)cc(S(=O)(=O)c2cnc3ccc(F)cc3c2N2CCOCC2)c1 [Compound 289],> 500
11,O=S(=O)(c1ccc(F)c(Cl)c1)c1cnc2ccc(F)cc2c1N1CCOCC1 [Compound 290],200 to 500
12,O=S(=O)(c1ccccc1)c1cnc2ccc(Cl)cc2c1N1CCOCC1 [Compound 291],> 500
13,Cc1ccc(S(=O)(=O)c2cnc3ccc(Cl)cc3c2N2CCOCC2)cc1 [Compound 292],< 200
14,O=S(=O)(c1cc(Cl)cc(Cl)c1)c1cnc2ccc(Cl)cc2c1N1CCOCC1 [Compound 293],> 500
15,O=S(=O)(c1cc(F)cc(F)c1)c1cnc2ccc(Cl)cc2c1N1CCOCC1 [Compound 294],> 500
16,O=S(=O)(c1ccc(Cl)cc1)c1cnc2ccc(Cl)cc2c1N1CCOCC1 [Compound 295],> 500
17,COc1cccc(S(=O)(=O)c2cnc3ccc(Cl)cc3c2N2CCOCC2)c1 [Compound 296],> 500
18,O=S(=O)(c1cccc(Cl)c1)c1cnc2ccc(Cl)cc2c1N1CCOCC1 [Compound 297],> 500
19,O=S(=O)(c1ccc(Cl)c(Cl)c1)c1cnc2ccc(Cl)cc2c1N1CCOCC1 [Compound 298],200 to 500
20,N#Cc1cccc(S(=O)(=O)c2cnc3ccc(Cl)cc3c2N2CCOCC2)c1 [Compound 299],> 500
21,Cc1ccc(S(=O)(=O)c2cnc3ccc(Cl)cc3c2N2CCOCC2)cc1Cl [Compound 300],200 to 500
22,COc1ccc(S(=O)(=O)c2cnc3ccc(Cl)cc3c2N2CCOCC2)cc1Cl [Compound 301],> 500
23,O=S(=O)(c1ccc(F)c(Cl)c1)c1cnc2ccc(Cl)cc2c1N1CCOCC1 [Compound 302],> 500
24,Cc1ccc(S(=O)(=O)c2cnc3cc(F)ccc3c2N2CCOCC2)cc1 [Compound 303],> 500

row,Compound,Ki [nM]
1,O=S(=O)(c1ccccc1)c1cnc2cc(F)ccc2c1N1CCOCC1 [Compound 304],> 500
2,O=S(=O)(c1ccc(Cl)cc1)c1cnc2cc(F)ccc2c1N1CCOCC1 [Compound 305],> 500
3,COc1cccc(S(=O)(=O)c2cnc3cc(F)ccc3c2N2CCOCC2)c1 [Compound 306],200 to 500
4,COc1ccc(S(=O)(=O)c2cnc3cc(F)ccc3c2N2CCOCC2)cc1Cl [Compound 307],200 to 500
5,O=S(=O)(c1cc(Cl)cc(Cl)c1)c1cnc2cc(F)ccc2c1N1CCOCC1 [Compound 308],200 to 500
6,Cc1ccc(S(=O)(=O)c2cnc3cc(F)ccc3c2N2CCOCC2)cc1F [Compound 309],200 to 500
7,O=S(=O)(c1cc(F)cc(F)c1)c1cnc2cc(F)ccc2c1N1CCOCC1 [Compound 310],> 500
8,N#Cc1cccc(S(=O)(=O)c2cnc3cc(F)ccc3c2N2CCOCC2)c1 [Compound 311],200 to 500
9,Cc1ccc(S(=O)(=O)c2cnc3cc(F)ccc3c2N2CCOCC2)cc1Cl [Compound 312],< 200
10,COc1ccc(S(=O)(=O)c2cnc3cc(F)ccc3c2N2CCOCC2)cc1 [Compound 313],> 500
11,Cc1ccc(S(=O)(=O)c2cnc3cc(F)ccc3c2N2CCOCC2)cc1C [Compound 314],200 to 500
12,O=S(=O)(c1ccc(F)c(F)c1)c1cnc2cc(F)ccc2c1N1CCOCC1 [Compound 315],200 to 500
13,O=S(=O)(c1ccc(Cl)c(Cl)c1)c1cnc2cc(F)ccc2c1N1CCOCC1 [Compound 316],< 200
14,Cc1cc(C)cc(S(=O)(=O)c2cnc3cc(F)ccc3c2N2CCOCC2)c1 [Compound 317],200 to 500
15,O=S(=O)(c1cc(Cl)cc(Cl)c1)c1cnc2cc(Cl)ccc2c1N1CCOCC1 [Compound 318],< 200
16,O=S(=O)(c1cc(F)cc(F)c1)c1cnc2cc(Cl)ccc2c1N1CCOCC1 [Compound 319],200 to 500
17,N#Cc1cccc(S(=O)(=O)c2cnc3cc(Cl)ccc3c2N2CCOCC2)c1 [Compound 320],200 to 500
18,O=S(=O)(c1ccc(F)cc1)c1cnc2cc(Cl)ccc2c1N1CCOCC1 [Compound 321],> 500
19,COc1ccc(S(=O)(=O)c2cnc3cc(Cl)ccc3c2N2CCOCC2)cc1 [Compound 322],> 500
20,O=S(=O)(c1ccccc1)c1cnc2cc(Cl)ccc2c1N1CCOCC1 [Compound 323],> 500
21,O=S(=O)(c1ccc(Cl)cc1)c1cnc2cc(Cl)ccc2c1N1CCOCC1 [Compound 324],200 to 500
22,O=S(=O)(c1cccc(F)c1)c1cnc2cc(Cl)ccc2c1N1CCOCC1 [Compound 325],> 500
23,COc1cccc(S(=O)(=O)c2cnc3cc(Cl)ccc3c2N2CCOCC2)c1 [Compound 326],200 to 500
24,Cc1ccc(S(=O)(=O)c2cnc3cc(Cl)ccc3c2N2CCOCC2)cc1C [Compound 327],< 200

row,Compound,Ki [nM]
1,O=S(=O)(c1cccc(Cl)c1)c1cnc2cc(Cl)ccc2c1N1CCOCC1 [Compound 328],< 200
2,Cc1ccc(S(=O)(=O)c2cnc3cc(Cl)ccc3c2N2CCOCC2)cc1Cl [Compound 329],< 200
3,COc1ccc(S(=O)(=O)c2cnc3cc(Cl)ccc3c2N2CCOCC2)cc1Cl [Compound 330],200 to 500
4,O=S(=O)(c1ccc(F)c(F)c1)c1cnc2cc(Cl)ccc2c1N1CCOCC1 [Compound 331],> 500
5,O=S(=O)(c1ccc(Cl)c(Cl)c1)c1cnc2cc(Cl)ccc2c1N1CCOCC1 [Compound 332],< 200
6,Cc1cc(C)cc(S(=O)(=O)c2cnc3cc(Cl)ccc3c2N2CCOCC2)c1 [Compound 333],> 500
7,O=S(=O)(c1ccc(F)c(Cl)c1)c1cnc2cc(Cl)ccc2c1N1CCOCC1 [Compound 334],< 200
8,O=S(=O)(c1cc(Cl)cc(Cl)c1)c1cnc2c(F)cccc2c1N1CCOCC1 [Compound 335],200 to 500
9,O=S(=O)(c1cc(F)cc(F)c1)c1cnc2c(F)cccc2c1N1CCOCC1 [Compound 336],200 to 500
10,O=S(=O)(c1ccc(F)cc1)c1cnc2c(F)cccc2c1N1CCOCC1 [Compound 337],> 500
11,COc1ccc(S(=O)(=O)c2cnc3c(F)cccc3c2N2CCOCC2)cc1 [Compound 338],> 500
12,O=S(=O)(c1ccc(Cl)cc1)c1cnc2c(F)cccc2c1N1CCOCC1 [Compound 339],200 to 500
13,O=S(=O)(c1cccc(F)c1)c1cnc2c(F)cccc2c1N1CCOCC1 [Compound 340],> 500
14,Cc1ccc(S(=O)(=O)c2cnc3c(F)cccc3c2N2CCOCC2)cc1F [Compound 341],200 to 500
15,Cc1ccc(S(=O)(=O)c2cnc3c(F)cccc3c2N2CCOCC2)cc1 [Compound 342],> 500
16,O=S(=O)(c1ccc(F)c(F)c1)c1cnc2c(F)cccc2c1N1CCOCC1 [Compound 343],200 to 500
17,O=S(=O)(c1ccc(F)c(Cl)c1)c1cnc2c(F)cccc2c1N1CCOCC1 [Compound 344],< 200
18,O=S(=O)(c1ccc(Cl)c(Cl)c1)c1cnc2c(F)cccc2c1N1CCOCC1 [Compound 345],< 200
19,N#Cc1ccc2ncc(S(=O)(=O)c3ccc(F)cc3)c(N3CCOCC3)c2c1 [Compound 346],200 to 500
20,O=S(=O)(c1ccc(Cl)cc1)c1cnc2c(Cl)ccc(Cl)c2c1N1CCOCC1 [Compound 347],200 to 500
21,O=S(=O)(c1ccc(Cl)cc1)c1cnc2ccc(F)cc2c1N1CCC(F)(F)CC1 [Compound 348],200 to 500
22,CC1CCN(c2c(S(=O)(=O)c3ccc(F)c(Cl)c3)cnc3ccc(F)cc23)CC1 [Compound 349],200 to 500
23,O=S(=O)(c1ccc(F)cc1)c1cnc2cc(Cl)ccc2c1N1CCC(CO)CC1 [Compound 350],200 to 500
24,O=S(=O)(c1cc(F)cc(F)c1)c1cnc2cc(Cl)ccc2c1N1CCC(CO)CC1 [Compound 351],200 to 500
